In patent publication US7018641B1, “Materials and methods for the control of plant pathogens” (priority 2000, dated 2006):

Legend:
[1] = system: Ralstonia solanacearum; format: cell-based
[2] = system: Ralstonia solanacearum; format: cell-based; remark: listed apart in the source

With `CC(C)=CCC/C(C)=C/CO` [Geraniol, geraniol] the “reduction of population of Ralstonia solanacearum” value ([1]; compared to untreated control) was 89.5% and the volatile bactericidal activity ([1]; in words) was “volatile bactericidal activity”.
`Cc1ccc(C(C)C)c(O)c1` [Thymol, thymol] was tested, and the “inhibition of the development of R. solanacearum colonies” value ([2]; 100 μg/ml concentration, FIG. 2) was “entirely inhibited” and the “efficacy against Rs” value ([2]; tested in vitro and in greenhouse, vapor effect for the oils) was “effective”.
